Measurements as given in the SangsterLogP compilation.
Residues, ends and D or L forms follow the SMILES beside them. *: point of attachment. Cbz = O=C(OCc1ccccc1)*

Assay: method code SF, from Hansch, C. & Leo, A. (1987). Log P database [Dataset]. Pomona College Medicinal Chemistry Project.

logP | Structure (SMILES) | further results
 | Nc1nc(N)c2ncn(COCCO)c2n1 | logD (pH 13.0): -1.06
 | COC(=O)c1ccc(OC)cc1 | logD (pH 7.0): 2.27
1.34 | O=[N+]([O-])c1ccc(C=Cc2ncccn2)o1 | 
1.46 | CC#CC | 
1.37 | COc1ccc(Cn2ccnc2C=Cc2ccc([N+](=O)[O-])o2)cc1 | 
1.5 | O=C(O)c1ccsc1 | 
0.85 | COc1cccc(C(N)=O)c1 | 
 | CCNCCc1cccnc1 | logD (pH 11.0): 0.54
 | Cc1ccc(N2C(N)=NC(N)=NC2(C)C)cc1 | logD (pH 13.0): 0.85
1.28 | COc1cccc(NC(C)=O)c1 | 
3.22 | CCOC(=O)C(=Cc1ccccc1C)C(=O)OCC | 
1.64 | Cc1ccc2[nH]c(CCCCc3nc4cc(C)ccc4[nH]3)nc2c1 | 
0.04 | O=c1[nH]cc(C(F)(F)F)c(=O)[nH]1 | 
0.07 | CS(=O)(=O)Nc1cccc(NS(C)(=O)=O)c1 | 
1.95 | CCOc1ccc(OC(C)=O)cc1 | 
-0.17 | CCCC(=O)OCC(O)CO (stereo unspecified) | 
3.55 | CCCCCCC1OC(=O)c2ccccc21 (stereo unspecified) | 
2.34 | Cc1ccsc1 | 
1.51 | O=[N+]([O-])c1ccc2[nH]c(CCCCCCc3nc4cc([N+](=O)[O-])ccc4[nH]3)nc2c1 | 
3.65 | CC(C)(C)c1cc(O)ccc1[N+](=O)[O-] | 
1.64 | C/N=C/c1ccccc1 | 
1.25 | CS(=O)(=O)Oc1ccccc1 | 
1.81 | OCC(F)(F)C(F)(F)C(F)(F)F | 
2.44 | O=C(O)c1ccc(NCc2ccccc2)cc1 | 

logP | Structure (SMILES) | further results
2.04 | CCCC1=Nc2cc(Cl)ccc2S(=O)(=O)N1 | 
-0.97 | Nc1c(S(=O)(=O)O)ccc2ccccc12 | 
3.13 | c1ccc(CNc2ccccc2)cc1 | 
2.08 | O=[N+]([O-])CCc1ccccc1 | 
3.18 | CC(C)c1cccc(C(C)C)c1N | 
1.74 | CC(=O)Oc1cccc(F)c1 | 
2.16 | [O-][N+](=Cc1c(Cl)cccc1Cl)c1ccccc1 | 
 | COC(OC)(OC)c1ccccc1 | logD (pH 13.0): 2.27
-0.21 | NC(=O)c1cccc(C(N)=O)c1 | 
2.21 | Cc1ccccc1C#N | 
3.6 | CN(Cc1ccc(C#N)cc1)/N=N/c1ccc(C(=O)O)cc1 | 
3.23 | CCCCC | 
 | Oc1ccc(Nc2ccccc2)cc1 | logD (pH 6.4): 2.82
1.42 | CC1=Nc2cc([N+](=O)[O-])c(Cl)cc2S(=O)(=O)N1 | 
0.8 | COC[C@H]1O[C@@H](O)[C@H](NC(=O)N(CCCl)N=O)[C@@H](OC)[C@@H]1OC | 
 | CC(CN1CC(=O)NC(=O)C1)N1CC(=O)NC(=O)C1 (stereo unspecified) | logD (pH 7.4): -1.74
1.37 | CC1=Nc2cc(Br)ccc2S(=O)(=O)N1 | 
0.3 | OCc1ccoc1 | 
1.85 | O=C(O)COc1ccc(Cl)c([N+](=O)[O-])c1 | 
2.43 | CCOC(=O)C(C#N)=Cc1ccccc1 | 
 | CCCNc1c(C)n(C)c(=O)n(-c2ccccc2)c1=O | logD (pH 7.4): 1.2
1.89 | O=S1(=O)NC(Cc2ccccc2)=Nc2ccccc21 | 
5.53 | CCCCOC(=O)c1ccc(C(=O)OCCCC)cc1 | 
 | CCCCN(CCCC)CC(O)c1ccccc1 (stereo unspecified) | logD (pH 13.0): 3.16

logP | Structure (SMILES) | further results
1.44 | CN(C)/N=N/c1ccccc1C(=O)NNC(=O)CC#N | 
0.75 | CC(=O)Nc1cc(OCC(=O)O)ccc1Cl | 
1.02 | CNC(=O)N(C)c1ccccc1 | 
2.61 | COc1ccc(/N=N/N(C)C(C)=O)cc1 | 
 | O=C1C=C(O)CCN1[C@@H]1O[C@H](CO)[C@@H](O)[C@H]1O | logD (pH 7.4): -2.28
 | CC(=O)Nc1cccc(OC(C)=O)c1 | logD (pH 7.0): 1.03
 | CC(=O)Oc1ccc(C(C)=O)cc1 | logD (pH 7.0): 1.29
2.87 | CCc1cccs1 | 
0.84 | CCOCOCC | 
2.33 | CCN(CC)c1ccc(NC(=O)N(C)OC)cc1 | 
 | CN(C)c1ccc([N+](=O)[O-])cc1 | logD (pH 7.0): 2.27
 | COC(OC)OC | logD (pH 13.0): 0.25
3.1 | CCC(C)NC(=O)/C(F)=C\c1ccccc1 (stereo unspecified) | 
1.54 | COc1ccc(OC(C)=O)cc1 | 
2.56 | CCc1ccc(OC(C)=O)cc1 | 
 | CC1(C)N=C(N)N=C(N)N1c1ccc(N)cc1 | logD (pH 13.0): -0.59
 | CC1(C)N=C(N)N=C(N)N1c1ccc(C(F)(F)F)cc1 | logD (pH 13.0): 1.22
1.51 | CN(C)C(=O)Nc1ccc([N+](=O)[O-])cc1 | 
0.73 | NC(=O)c1ccccc1Br | 
3.18 | CCCOc1ccccc1 | 
 | COC1(NC(=O)CSC(F)F)C(=O)N2C(C(=O)OCC(=O)C(C)(C)C)=C(CSC3(C)N=NN=N3)CSC21 (stereo unspecified) | logD (pH 6.8): 2.31
0.62 | CC1=Nc2cccc(Cl)c2S(=O)(=O)N1 | 
 | COc1ccc(C=O)cc1 | logD (pH 7.0): 1.61
2.86 | CCCCC1OC(=O)c2cc(N)ccc21 (stereo unspecified) | 

logP | Structure (SMILES) | further results
 | CCOc1cc(Oc2ccc(C(F)(F)F)cc2Cl)ccc1[N+](=O)[O-] | logD (pH 5.9): 4.7
1.86 | NC(=S)NN=Cc1ccccc1 | 
3.92 | CCOC(=O)C(=Cc1ccc(Cl)c(Cl)c1)C(C)=O | 
1.49 | NC(=S)c1ccccc1 | 
3.2 | CCOC(=Cc1ccccc1)C(=O)NC(C)CC (stereo unspecified) | 
1.04 | C=COCC | 
-0.68 | CC(=O)NC(=O)NC(C)=O | 
0.62 | CN(C)C(=O)CCc1ccco1 | 
2.42 | CN(C)c1ccc2c(c1)C(=O)OC2(C)C | 
0.82 | COC(=O)CNC(=O)c1ccccc1 | 
0.19 | O=c1n[n+]([O-])ccn1Cc1ccccc1 | 
-3.02 | OC1OC[C@H](O)[C@H](O)[C@H]1O (stereo partly specified) | 
3.58 | COc1cc(OC)c(OC)c2c1CC[C@H](NC(C)=O)c1cc(=O)c(NCc3ccccc3)ccc1-2 | 
4.03 | CCC(C)NC(=O)C=C(c1ccc(Cl)cc1)C(C)C (stereo unspecified) | 
3.62 | N/N=C1\c2ccccc2C(=O)C1C(=O)C(c1ccccc1)c1ccccc1 (stereo unspecified) | 
 | CC(=O)NN=CCCc1ccccc1 | logD (pH 7.4): 1.8
4.73 | C[C@@H]1C[C@H]2[C@@H]3C[C@H](F)C4=CC(=O)C(Cl)=C[C@]4(C)[C@@]3(Cl)[C@@H](O)C[C@]2(C)[C@@]1(O)C(=O)COC(=O)C(C)(C)C | 
 | CSCC1=C(C(=O)O)N2C(=O)C(NC(=O)Cc3cccs3)C2SC1 (stereo unspecified) | logD (pH 3.0): 1.01
 | Nc1nc(=O)c2[nH]nnc2[nH]1 | logD (pH 4.2): -0.71
1.45 | Cn1c(=O)ccc2ccccc21 | 
 | COc1ccc(-c2nc3ccccc3[nH]2)c(OC)c1 | logD (pH 8.0): 2.59
0.59 | CCC=O | 
 | CC(=O)c1ccccc1C(=O)O | logD (pH 1.0): 0.81
2.71 | CC(C)(C)CC1=Nc2ccc(Cl)cc2S(=O)(=O)N1 | 

logP | Structure (SMILES) | further results
1.2 | CS(=O)(=O)NN=Cc1ccccc1 | 
 | O=C(O)C(CO)c1ccccc1 (stereo unspecified) | logD (pH 1.0): 0.77
3.23 | CC(=O)N(C)/N=N/c1ccc(C)cc1 | 
 | CCCC1CC(C(=O)NC(C(C)Cl)C2OC(SC)C(O)C(O)C2O)N(CC)C1 (stereo unspecified) | logD (pH 12.0): 2.51
1.16 | Nc1cc(OCC(=O)O)ccc1Cl | 
1.16 | O=C(OCCOCCO)c1ccccc1 | 
-1.87 | O=c1nc[nH]c(=O)[nH]1 | 
4.56 | C=C(CC(Cl)(Cl)Cl)c1ccccc1 | 
1.07 | O=S1(=O)NC=Nc2ccc(Cl)cc21 | 
3.34 | O=C(Nc1ccc(Br)cc1)C(F)(F)F | 
2.32 | Nc1ccccc1I | 
2.72 | CCCCCCC1CCC(=O)O1 (stereo unspecified) | 
2.17 | N#Cc1c(N)sc2ccccc12 | 
1.59 | CC(=O)C(=Cc1ccccc1)C(C)=O | 
 | O=c1[nH]c(=O)n(C2CCCO2)cc1F (stereo unspecified) | logD (pH 7.4): -0.27
1.53 | Cc1csc(C=Cc2ccc([N+](=O)[O-])o2)n1 | 
3.67 | CCOC(=O)C(=Cc1ccc(Cl)cc1Cl)C(C)=O | 
3.1 | CCOC(=O)C(=Cc1ccc(F)cc1)C(=O)OCC | 
 | O=C(O)c1ccccc1Oc1ccccc1 | logD (pH 1.0): 3.11
2.11 | C(=C\c1ccccn1)/c1ccccn1 | 
2.56 | O=C(NN=Cc1ccccc1)c1ccccc1 | 
0.6 | Nc1nc2ccccc2c(=O)[nH]1 | 
-0.33 | CN1CCOCC1 | 

Structure (SMILES) | logP | further results
COc1ccc(C(C)=O)c(N)c1 | 1.76 | 
COc1cc(C=NO)ccc1OCCO | 0.82 | 
CC(C)C(NC(=O)OCc1ccccc1)C(=O)NC(Cc1ccc(O)cc1)C(=O)O (stereo not drawn) (Cbz-Val-Tyr-OH; configuration not given here) | 2.43 | 
O=c1[nH]cc(I)c(=O)[nH]1 | 0.04 | 
CCC(C)NP(=O)(OC)Oc1cc(Cl)c(Cl)cc1Cl (stereo unspecified) | 3.99 | 
CCOP(=O)(OCC)Oc1ccc(SC)cc1 | 2.79 | 
O=C(Nc1ccc(Cl)c(Cl)c1)C1CCCC1 | 4.47 | 
CSSC | 1.77 | 
CCOP(=O)(OCC)Oc1ccc(SC)c(C)c1 | 3.28 | 
O=NN1CCOCC1 | -0.3 | 
ICCCc1ccccc1 | 3.9 | 
N#CCc1cccs1 | 1.26 | 
CCOP(=O)(N1CC1(C)C)N1CC1(C)C (stereo unspecified) | 1.02 | 
N#CSCc1ccccc1 | 1.99 | 
CCCOP(=O)(OCCC)OCCC | 1.87 | 
CC(=O)Nc1ccc(Oc2ccccc2)cc1 | 3.13 | 
CCNP(=O)(OC)Oc1cc(Cl)c(Cl)cc1Cl (stereo unspecified) | 3.18 | 
CCCCl | 2.04 | 
ClC(Cl)(Cl)c1ccc(C(Cl)(Cl)Cl)cc1 | 4.62 | 

Structure (SMILES) | logP | further results
CCOP(=S)(OCC)SCS(=O)C(C)(C)C (stereo unspecified) | 2.21 | 
CNP(=O)(OC)Oc1ccccc1Cl (stereo unspecified) | 1.61 | 
c1ccc2c(c1)OCO2 | 2.08 | 
O=C(O)c1cc(=O)c2cc3c(cc2o1)CCCC3 | 3.4 | 
CCOP(=S)(OCC)N1C(=O)c2ccccc2C1=O | 3.48 | 
O=C(NC1CC1)c1cc(N2CC2)c([N+](=O)[O-])cc1[N+](=O)[O-] | 0.74 | 
CC[N+](=O)[O-] | 0.18 | 
O=S(=O)(NO)c1ccccc1 | 0.48 | 
COc1ccc(-c2nc3cnccc3[nH]2)c(OC)c1 | 2.56 | 
CSc1ccc(C=NN=C(N)NN)cc1 | 1.35 | 
COC(=O)c1cc(Oc2ccc(Cl)cc2Cl)ccc1[N+](=O)[O-] | 4.48 | 
S=C(Nc1ccccc1)c1ccccc1 | 3.03 | 
COC(=O)C(C)Oc1ccc(Oc2ccc(Cl)cc2Cl)cc1 (stereo unspecified) | 4.8 | 
CC(=O)C(F)(F)F | 0.2 | 
CN(CCO)C1=C(N2CC2)C(=O)C(N(C)CCO)=C(N2CC2)C1=O | -0.37 | 
FC(F)(F)C(F)(F)C(F)(F)C(F)(F)C(F)(F)F | 4.4 | 
O=C(O)COc1ccc(S(=O)(=O)F)cc1 | 1.82 | 
CC=CC(=O)Nc1ccc(Cl)c(Cl)c1 | 3.63 | 
